Experimental data taken from patent US20220259593A1, “CONTROL OF MAMMALIAN GENE DOSAGE USING CRISPR” (The Regents of the University of California, priority 2019, published 2022).

Columns and labels:
K562 CRISPRi cells [1] = assay: Perturb-seq pooled growth measurement (sgRNA counts, growth phenotype γ, relative activity); format: cell-based, human; settings: for gamma_day5 / gamma_day10: pooled growth phenotype γ of the Perturb-seq sgRNA; for gamma_day5: day 5, K562 CRISPRi cells; for gamma_day10: day 10, K562 CRISPRi cells; for relative_activity_day5: γ relative to perfectly matched sgRNA (_00) of the same gene, day 5
How it was run: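 CRISPRi K562 cells from the Perturb-seq transduced pool; 500,000-cell samples taken days two, seven and twelve post-transduction. sgRNA amplicons from genomic DNA sequenced; growth phenotypes from normalized sgRNA abundances at days seven and twelve versus day two. Relative activity assigned from day seven (five days' growth).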

K562 CRISPRi cells [2] = assay: as above; format: cell-based, human; settings: γ relative to perfectly matched sgRNA (_00) of the same gene, day 10

Substance	gamma_day5 (K562 CRISPRi cells [1])	gamma_day10 (K562 CRISPRi cells [1])	relative_activity_day5 (K562 CRISPRi cells [1])	relative_activity_day10 (K562 CRISPRi cells [2])
EIF2S1_ −_67827080.23-P1P2_07 (guide GAGCGAAGCGCTCGCTGAGG; listed as DNA, chemistry not fully specified)	−0.08307	−0.04004	0.09182	0.07767
GATA1 −_48645022.23-P1P2_12 (guide GTGAGCTTGCCACATCCGCA; listed as DNA, chemistry not fully specified)	−0.1084	−0.06327	0.1126	0.1028
GATA1_ −_48645022.23-P1P2_00 (guide GTGAGCTTGCCACATCCCCA; listed as DNA, chemistry not fully specified)	−0.9627	−0.6153	1	1
GATA1_ −_48645022.23-P1P2_03 (guide GTGCGCTTGCCACATCCCCA; listed as DNA, chemistry not fully specified)	−0.9855	−0.6259	1.024	1.017
GATA1_ −_48645022.23-P1P2_04 (guide GTGAGCTTACCACATCCCCA; listed as DNA, chemistry not fully specified)	−0.9313	−0.6032	0.9673	0.9804
GATA1_ −_48645022.23-P1P2_06 (guide GTGAGCTTGCGACATCCCCA; listed as DNA, chemistry not fully specified)	−0.5073	−0.3486	0.5269	0.5666
GATA1_ −_48645022.23-P1P2_08 (guide GTGAGCTTTCCACATCCCCA; listed as DNA, chemistry not fully specified)	−0.7632	−0.4893	0.7928	0.7953
GINS1_ −_25388381.23-P1P2_00 (guide GGACTAGAACGAAAGGAGTG; listed as DNA, chemistry not fully specified)	−0.9993	−0.7125	1	1
GINS1_ −_25388381.23-P1P2_03 (guide GGACTATAACGAAAGGAGTG; listed as DNA, chemistry not fully specified)	−0.7467	−0.4797	0.7472	0.6733
GINS1_ −_25388381.23-P1P2_06 (guide GGACTAGAACGGAAGGAGTG; listed as DNA, chemistry not fully specified)	−0.9794	−0.6548	0.9801	0.9191
GINS1_ −_25388381.23-P1P2_08 (guide GGACTAGAGCGAAAGGAGTG; listed as DNA, chemistry not fully specified)	−1.039	−0.6723	1.039	0.9436
GINS1_ −_25388381.23-P1P2_14 (guide GGACTAGAACGAAAGGAGCG; listed as DNA, chemistry not fully specified)	−0.3535	−0.2609	0.3537	0.3662
GNB2L1_ + _180670873.23-P1P2_00 (guide GTGCAAGGCGGCGGCAGGAG; listed as DNA, chemistry not fully specified)	−0.2908	−0.3054	1	1
GNB2L1_ + _180670873.23-P1P2_02 (guide GTGCAAGACGGCGGCAGGAG; listed as DNA, chemistry not fully specified)	−0.1438	−0.1273	0.4945	0.4167
GNB2L1_ + _180670873.23-P1P2_07 (guide GTGCAAGGCGGGGGCAGGAG; listed as DNA, chemistry not fully specified)	−0.38	−0.2733	1.307	0.8948
GNB2L1_ + _180670873.23-P1P2_08 (guide GTGCAAGGTGGCGGCAGGAG; listed as DNA, chemistry not fully specified)	−0.3061	−0.3155	1.052	1.033
GNB2L1_ + _180670873.23-P1P2_13 (guide GTGCAAGGCGGCGGCGGGAG; listed as DNA, chemistry not fully specified)	−0.2097	−0.2074	0.7211	0.6791
HSPA5_ + _128003624.23-P1P2_00 (guide GAGCCGAGTAGGCGACGGTG; listed as DNA, chemistry not fully specified)	−0.7476	−0.4272	1	1
HSPA5_ + _128003624.23-P1P2_01 (guide GAACCGAGTAGGCGACGGTG; listed as DNA, chemistry not fully specified)	−0.6373	−0.3748	0.8525	0.8774
HSPA5_ + _128003624.23-P1P2_04 (guide GAGCCGAGAAGGCGACGGTG; listed as DNA, chemistry not fully specified)	−0.7544	−0.4225	1.009	0.989
HSPA5_ + _128003624.23-P1P2_06 (guide GAGCCGAGTAGACGACGGTG; listed as DNA, chemistry not fully specified)	−0.1192	−0.09835	0.1594	0.2302
HSPA5_ + _128003624.23-P1P2_08 (guide GAGCCGAGTGGGCGACGGTG; listed as DNA, chemistry not fully specified)	−0.7566	−0.4435	1.012	1.038
HSPA9_ −_137911079.23-P1P2_00 (guide GGAGCTGCGCGATGCGGTGG; listed as DNA, chemistry not fully specified)	−0.95	−0.5892	1	1
HSPA9_ −_137911079.23-P1P2_02 (guide GGAGTTGCGCGATGCGGTGG; listed as DNA, chemistry not fully specified)	−0.6504	−0.4027	0.6846	0.6835
HSPA9_ −_137911079.23-P1P2_04 (guide GGAGCTGCGCAATGCGGTGG; listed as DNA, chemistry not fully specified)	−0.2005	−0.1657	0.211	0.2813
